In the METLIN SMRT retention time set (Domingo-Almenara et al. 2019):

test: gradient 5% acetonitrile 3 min, to 50% in 2 min, to 85% in 15 min, held 3 min, 100 µL/min; conditions: column: Zorbax Extend-C18 2.1 x 50 mm; eluents: water / acetonitrile, 0.1% formic acid
Procedure, shortened: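 A Zorbax Extend-C18 column (2.1 × 50 mm, 1.8 μm) run at 100 μL/min with water and acetonitrile, both containing 0.1% formic acid, separated mixtures of ~100 pure standards. The HPLC was coupled to a quadrupole time-of-flight mass spectrometer operated in positive and negative ionization mode, with dead and dwell volumes of 40 μL and 900 μL. Each retention time was taken from a computationally picked adduct peak that was then manually inspected.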

| Compound | RP-LC retention time [s] |
| --- | --- |
| COC(=O)c1cc2c(cc1NC(=O)C1CCCN(c3ncnc4c3nc3n4CCCCC3)C1)OCO2 (stereo unspecified) | 943 |
| O=C(NCCC1CCN(C(=O)Nc2cc(F)cc(F)c2)CC1)c1ccoc1 | 798 |
| Cc1nn(CC(=O)NCCN2CCCCC2C)c(=O)c2nc(-c3ccccc3)sc12 (stereo unspecified) | 645 |
| CCCc1c(C(=O)O)nnn1-c1ccc(C)cc1F | 761 |
| O=C(O)c1cn(-c2ccc(F)c(Cl)c2)nn1 | 727 |
| COc1cccc(CNC2=NCCNC23CCN(S(=O)(=O)c2cc(C)c(C)cc2C)CC3)c1 | 836 |
| O=C(c1ccc2c(c1)OCO2)N1CCC(N2C[C@H]3C[C@H](C2)[C@H]2CCCC(=O)N2C3)CC1 | 561 |
| COc1ccc(Nc2nc(N3CCN(C)CC3)nc3c2C(=O)CC(C)(C)C3)cc1 | 706 |
| O=C(CCCc1c[nH]c2ccccc12)N1CCN2CCS(=O)(=O)N(C3CC3)C(=O)C2C1 (stereo unspecified) | 824 |
| O=C(NCc1ccc2c(c1)OCO2)C1CCCN(C(=O)c2cc(-c3cccnc3)n[nH]2)C1 (stereo unspecified) | 584 |
| Cc1cccc(NC(=O)Nc2nc(C)c(C(=O)NC3CCCC3)s2)c1 | 812 |
| CC(C)Cc1ccc([C@H](C)C(=O)O)cc1 | 1040 |
| C#Cc1cccc(Nc2ncnc3cc(OCCOC)c(OCCO)cc23)c1 | 663 |
| COc1nccnc1NC1CCN(C(=O)c2ccnn2C)CC1 | 608 |
| CCOC(=O)C1=C(CN2CCCCC2)NC(=O)NC1c1ccc(OC(C)C)cc1 (stereo unspecified) | 646 |
| CCCNC(=O)c1c(OCC2CC2)cc(=O)n2c1CCCCC2 | 683 |
| CCOCCCNC(=O)c1cc2sc(Cl)cc2n1C | 939 |
| CCCOCCOC(=O)C1=C(C)NC2=C(C(=O)C(C(=O)OC)C(C)C2)C1c1cccc(F)c1 (stereo unspecified) | 965 |
| Cc1ccc(F)cc1S(=O)(=O)N(C)CC1CCOC1 (stereo unspecified) | 836 |
| Cc1sc2cc(C(=O)O)[nH]c2c1C(=O)N1CCOCC1 | 622 |
| CCc1nnc(-c2ccc3ccn(CC(=O)N4CCN(c5cccc(OC)c5)CC4)c3c2)o1 | 864 |
| CCCC1c2nccn2CCCN1C(=O)CCc1c(C)noc1C (stereo unspecified) | 595 |

| Compound | RP-LC retention time [s] |
| --- | --- |
| CCN1CCN(C(=O)c2n[nH]c3c2CC(C)CC3)CC1 (stereo unspecified) | 567 |
| CC(C)c1noc(-c2ccnc(-n3cnc(C(=O)NC4CCCC4)c3)c2)n1 | 693 |
| Cc1ccc(S(=O)(=O)N2CC(c3nc(C)no3)C3(CCOCC3)C2)cc1 (stereo unspecified) | 845 |
| CCc1ccc(S(=O)(=O)c2cnc(N3CCN(C4CCCCC4)CC3)nc2N)cc1 | 706 |
| Cn1cc2nc(SCc3cc(F)cc(F)c3)n(Cc3ccc(F)cc3)c(=O)c2n1 | 1070 |
| O=C(Cn1cc(-c2ccccc2)c2ncnc(N3CCOCC3)c21)NC1CCCCC1 | 753 |
| Cc1ccsc1C(=O)NCCn1c(C)cnc1C1CCC1 | 596 |
| O=C(C1CC(=O)N(c2ccccc2)C1)N1CCSCC1 (stereo unspecified) | 828 |
| CC(NC(=O)C1CCN(c2cncnc2N2CCCC2)CC1)c1ccc(F)cc1 (stereo unspecified) | 648 |
| Cc1nc(NCCNC(=O)c2snnc2C)cc(-n2cccn2)n1 | 627 |
| COc1ccccc1-c1c(C)nn2c(SCC(=O)NCCN(C)C)cc(C)nc12 | 622 |
| CCC(C)CNCC(=O)N1CCc2sccc2C1COc1cccc(C)c1 (stereo unspecified) | 916 |
| Cc1nc(C2CCCCN2C(=O)c2ccco2)n[nH]1 (stereo unspecified) | 593 |
| CCCCCOC(=O)CSc1nnc(-c2ccc(Cl)cc2Cl)o1 | 1320 |
| CCOCCCNC(=O)C1CCN(c2nnc3c(Cl)cccn23)CC1 | 610 |
| O=C(c1cn2ccnc(-c3ccc(F)cc3)c2n1)N1CCN(c2ncccn2)CC1 | 756 |
| CC1CCCN(c2ccc(-c3noc(CN(C)C4CCCCC4)n3)cn2)C1 (stereo unspecified) | 721 |
| CCCN(CC1CC1)C(=O)[C@@H]1[C@H](c2cc(OC)c(OC)c(OC)c2)c2cc3c(cc2[C@H](O)[C@H]1CO)OCO3 | 740 |
| Cc1nc2c(c(N(C)CCc3c(C)nn(C)c3C)n1)CCC2 | 588 |
| COc1ccc(OC)c(NC(=O)c2csc(-c3ccc(C)n3C)n2)c1 | 1230 |
| CCN(CC)CCc1nc(-c2ccccc2)no1 | 674 |
| Cc1nc(-n2nc(C)c(CC(=O)N3CCCCCC3)c2C)sc1C | 1010 |

The remaining lines, values ahead:

| RP-LC retention time [s] | Compound |
| --- | --- |
| 983 | Cc1ccc(NC(=O)CC(C)S(=O)(=O)c2ccc3c(c2)CCN3C(=O)C2CC2)cc1N(C)C (stereo unspecified) |
| 930 | CCc1cccc(N2C=C(C(=O)OC)S(=O)(=O)c3ccccc32)c1 |
| 557 | CCC(=O)NCc1nc2c(n1C)CN(S(=O)(=O)c1cc(F)ccc1F)CC2 |
| 686 | O=C(c1cn2ccnc(-c3ccccc3)c2n1)N1CCN(C(=O)c2ccco2)CC1 |
| 805 | CCn1cc(-c2nc(CC(=O)NCc3cccs3)cs2)c2cccnc21 |
| 706 | Cc1cc(NC(=O)c2cccc(N3C(=O)CCC3=O)c2)n(-c2nc3ccc(F)cc3s2)n1 |
| 1130 | Cc1ccccc1Cn1nc(-c2nc(-c3ccc(F)cc3)no2)ccc1=O |
| 1230 | CCOc1ccccc1C(=O)Nc1ccc(Cl)c(C(F)(F)F)c1 |
| 680 | Fc1ccccc1CSc1ccc2nnc(-c3cccnc3)n2n1 |
| 1120 | Cc1ccccc1Cn1nc(-c2nc(C(C)(C)C)no2)ccc1=O |
| 607 | Cn1c(C(=O)N2CCN(c3ccccn3)CC2)cc2c(=O)oc3ccccc3c21 |
| 1220 | CCCOc1nc2ccccc2nc1N1CCCC(C(=O)NCc2cccc(C)c2)C1 (stereo unspecified) |
| 729 | CC(=O)c1ccc(NS(=O)(=O)c2ccccc2[N+](=O)[O-])cc1 |
| 1070 | Cc1cc(C)c(S(=O)(=O)N2CCC(C(=O)NCCc3csc(-c4ccccc4)n3)CC2)cc1C |
| 630 | CN(CCNC(=O)c1ccc2c(c1)NC(=O)C1CCCCN21)Cc1ccccc1 (stereo unspecified) |
| 827 | Cc1nnc(-c2cn(CC(=O)NCCCc3ccccc3)c3ccccc23)o1 |
| 882 | Cn1c(=O)n(C)c2cc(S(=O)(=O)c3ccc(F)cc3)c(NC(=O)c3ccccc3F)cc21 |
| 701 | CC1=C(c2ccc(Cl)cc2)S(=O)(=O)N=C1N1CCCN(C(=O)c2cccnc2)CC1 |
| 882 | Cc1ccc2[nH]cc(CCN3CC(C(=O)Nc4ccc(Cl)cc4)CC3=O)c2c1 (stereo unspecified) |
| 839 | COc1ccccc1-c1noc(C2CCCN2C(=O)c2ccc(C#N)cc2F)n1 (stereo unspecified) |
| 779 | CNS(=O)(=O)c1cc(-c2nnc(-c3ccc(OC)c(OC)c3)o2)ccc1C |
| 593 | CCOC(=O)c1noc2ncnc(Nc3ccc(CN4CCCCC4)cc3)c12 |
| 676 | CN(Cc1ccco1)C(=O)c1ccc(-n2cc(CNC(=O)C3CC3)cn2)cc1 |
| 645 | CN(C)CCN(Cc1ccccc1)C(=O)Cn1c(=O)oc2ccccc21 |

| RP-LC retention time [s] | Compound |
| --- | --- |
| 1100 | CCC(c1ccccc1)c1nc(-c2ccc3nnn(C)c3c2)no1 (stereo unspecified) |
| 953 | CCc1ccc(NC(=O)C2CCN(S(=O)(=O)c3ccc4c(c3)sc(=O)n4CC)CC2)cc1 |
| 996 | C[C@H]1CN(C(=O)c2ccc(F)cc2)C[C@@H]1c1nc(-c2ccccc2)no1 |
| 1060 | CCc1nc(-c2csc(S(=O)(=O)N3CCCC(C(=O)Nc4ccccc4OC)C3)c2)no1 (stereo unspecified) |
| 737 | N#Cc1ccc(S(=O)(=O)N2CCC(c3cc(N)on3)CC2)cc1 |
| 1120 | COc1ccc(CN2C=C(C(=O)OCc3noc(-c4cccc(OC)c4)n3)C(C)=NS2(=O)=O)cc1 |
| 1080 | COc1ccc(-c2csc(NC(=O)CS(=O)(=O)c3ccc(Cl)cc3)n2)cc1C |
| 810 | CC1(C(=O)NCc2ccccc2)CCCN(C(=O)NCc2ccccc2)C1 (stereo unspecified) |
| 861 | Cc1ccc(C)c(S(=O)(=O)N2CCC(N3CCN(Cc4ccccc4)C(=O)C3=O)CC2)c1 |
| 658 | CCC(CO)NCc1ccc(-c2cccc(Cl)c2)o1 (stereo unspecified) |
| 815 | COc1ccc(NC(=O)Nc2cccn3c(C4CCC4)nnc23)cc1F |
| 947 | Cc1ccc(C)c(S(=O)(=O)N2CCCN(c3ccc(=O)n(-c4ccccc4)n3)CC2)c1 |
| 786 | Cc1ccc(CC(=O)NC(CC(C)C)C(=O)Nc2nc3ccccc3[nH]2)cc1 (stereo unspecified) |
| 773 | CCOc1ccccc1N(C)C(=O)Cc1c(C(=O)O)c(C)cn1C |
| 570 | CCC(CN1CCOCC1)Nc1nc(-c2ccc(OC)cc2)nc2ccccc12 (stereo unspecified) |
| 1120 | CCOc1ccc(CC(=O)N2CCCC2c2nc(-c3cccc(C)c3)no2)cc1 (stereo unspecified) |
| 712 | O=C(c1ccc(Cn2cncn2)cc1)N1CCN(c2ccccc2F)CC1 |
| 872 | Cc1ccccc1-c1nnc(COc2ccc(NC(=O)c3ccoc3)cc2)o1 |
| 612 | O=C(Nc1nc(CC(=O)N2CCN(c3ccccc3O)CC2)cs1)c1cnccn1 |
| 1030 | CCC(C)c1ccc(-c2csc(NC(C)=O)n2)cc1 (stereo unspecified) |
| 910 | Cc1ccc(S(=O)(=O)CCc2nc(-c3cccc(-c4ccnn4C)c3)no2)cc1 |
| 1000 | CC(C)(Oc1ccc(Cl)cc1)C(=O)NCCS(=O)(=O)N1CCc2ccccc2C1 |
| 659 | CNc1nc(Nc2ccccc2OC)nc2ccccc12 |
